Reference: ChEMBL document CHEMBL4706587 (Eur J Med Chem, 2020)

Assays:
[1] = biological target: 5-hydroxytryptamine receptor 6 (Homo sapiens, UniProt P50406); test: Displacement of [3H]-LSD from human 5HT6 receptor expressed in HEK293 cells measured after 1 hr by microbeta plate reader method; format: cell-based
[2] = biological target: T1, Amine oxidase [flavin-containing] B (Homo sapiens, UniProt P27338); test: Inhibition of recombinant human MAO-B expressed in baculovirus infected BTI insect cells using p-tyramine as substrate preincubated for 30 mins followed by substrate addition and measured after 1 hr by fluorimetric analysis
T1 sequence (P27338 whole entry): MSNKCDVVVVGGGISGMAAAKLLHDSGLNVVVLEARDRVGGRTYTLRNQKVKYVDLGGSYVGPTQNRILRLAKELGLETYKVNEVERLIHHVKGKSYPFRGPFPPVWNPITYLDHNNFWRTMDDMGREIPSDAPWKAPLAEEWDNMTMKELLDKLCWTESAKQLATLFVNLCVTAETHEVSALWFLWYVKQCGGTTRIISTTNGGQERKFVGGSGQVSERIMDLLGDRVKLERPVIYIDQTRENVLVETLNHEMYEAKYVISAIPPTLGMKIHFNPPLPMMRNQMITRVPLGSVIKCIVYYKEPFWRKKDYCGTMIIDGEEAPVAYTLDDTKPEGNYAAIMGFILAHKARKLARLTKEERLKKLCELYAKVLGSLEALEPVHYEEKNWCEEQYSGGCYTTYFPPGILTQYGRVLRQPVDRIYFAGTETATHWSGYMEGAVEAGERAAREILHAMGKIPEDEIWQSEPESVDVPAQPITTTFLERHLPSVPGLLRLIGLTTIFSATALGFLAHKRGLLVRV

[3] = biological target: T1, Amine oxidase [flavin-containing] B; details: BTI, 1 h, read-out: INH
Description: Inhibition of recombinant human MAO-B expressed in baculovirus infected BTI insect cells at 1 uM using p-tyramine as substrate preincubated for 30 mins followed by substrate addition and measured after 1 hr by fluorimetric analysis relative to control

[4] = biological target: T2, 5-hydroxytryptamine receptor 1A (Homo sapiens, UniProt P08908); test: Displacement of [3H]8-OH-DPAT from human 5HT1A receptor expressed in HEK293 cells incubated at room temperature for 1 hr by microbeta plate reader analysis; format: cell-based
T2 sequence (P08908 whole entry): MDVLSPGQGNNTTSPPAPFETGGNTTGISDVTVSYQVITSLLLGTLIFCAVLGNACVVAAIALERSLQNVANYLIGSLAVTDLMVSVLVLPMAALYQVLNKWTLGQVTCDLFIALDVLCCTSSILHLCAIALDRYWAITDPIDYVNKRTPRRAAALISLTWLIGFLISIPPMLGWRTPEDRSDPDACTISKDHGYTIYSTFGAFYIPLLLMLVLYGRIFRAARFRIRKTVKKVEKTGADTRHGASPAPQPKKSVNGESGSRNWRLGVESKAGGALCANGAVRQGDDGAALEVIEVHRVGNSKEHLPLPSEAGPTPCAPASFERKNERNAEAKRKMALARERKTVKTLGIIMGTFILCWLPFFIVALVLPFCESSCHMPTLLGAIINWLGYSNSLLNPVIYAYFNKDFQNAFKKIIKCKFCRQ

[5] = biological target: 5-hydroxytryptamine receptor 2A (Homo sapiens, UniProt P28223); test: Displacement of [3H]-Ketanserin from human 5HT2A receptor expressed in CHOK1 cells incubated at 27 degree C for 1 hr by microbeta plate reader analysis; format: cell-based, CHO-K1
[6] = biological target: 5-hydroxytryptamine receptor 7 (Homo sapiens, UniProt P34969); test: Displacement of [3H]-5-CT from human 5HT7 receptor expressed in HEK293 cells measured after 1 hr by microbeta plate reader analysis; format: cell-based
D(2) dopamine receptor = D(2) dopamine receptor (Homo sapiens, UniProt P14416); test: Displacement of [3H]-raclopride from human D2 receptor expressed in HEK293 cells measured after 1 hr by microbeta plate reader analysis; format: cell-based
[7] = biological target: T3, Amine oxidase [flavin-containing] A (Homo sapiens, UniProt P21397); test: Inhibition of recombinant human MAO-A expressed in baculovirus infected BTI insect cells using p-tyramine as substrate preincubated for 30 mins followed by substrate addition and measured after 1 hr by fluorimetric analysis
T3 sequence (P21397 whole entry): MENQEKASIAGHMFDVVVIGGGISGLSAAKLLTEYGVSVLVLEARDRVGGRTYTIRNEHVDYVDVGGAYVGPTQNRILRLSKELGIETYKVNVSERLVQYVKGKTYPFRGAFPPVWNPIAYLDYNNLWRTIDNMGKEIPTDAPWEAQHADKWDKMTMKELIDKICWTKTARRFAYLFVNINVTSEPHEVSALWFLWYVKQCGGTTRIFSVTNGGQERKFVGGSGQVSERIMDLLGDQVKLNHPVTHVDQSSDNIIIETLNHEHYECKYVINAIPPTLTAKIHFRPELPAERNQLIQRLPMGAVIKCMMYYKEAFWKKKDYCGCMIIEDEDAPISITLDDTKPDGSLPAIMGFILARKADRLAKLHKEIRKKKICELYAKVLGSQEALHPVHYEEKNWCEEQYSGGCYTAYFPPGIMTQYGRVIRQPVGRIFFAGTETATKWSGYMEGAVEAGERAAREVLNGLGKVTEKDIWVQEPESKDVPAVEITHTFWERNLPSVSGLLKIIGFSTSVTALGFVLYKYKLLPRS

[8] = biological target: T4, adrenergic alpha1A receptor (Homo sapiens, UniProt P35348); test: Displacement of [3H]-prazosin from human recombinant adrenergic alpha1A receptor at 1 uM incubated for 60 mins by radiometric scintillation analysis relative to control; details: probe [3H]-prazosin
T4 sequence (P35348 whole entry): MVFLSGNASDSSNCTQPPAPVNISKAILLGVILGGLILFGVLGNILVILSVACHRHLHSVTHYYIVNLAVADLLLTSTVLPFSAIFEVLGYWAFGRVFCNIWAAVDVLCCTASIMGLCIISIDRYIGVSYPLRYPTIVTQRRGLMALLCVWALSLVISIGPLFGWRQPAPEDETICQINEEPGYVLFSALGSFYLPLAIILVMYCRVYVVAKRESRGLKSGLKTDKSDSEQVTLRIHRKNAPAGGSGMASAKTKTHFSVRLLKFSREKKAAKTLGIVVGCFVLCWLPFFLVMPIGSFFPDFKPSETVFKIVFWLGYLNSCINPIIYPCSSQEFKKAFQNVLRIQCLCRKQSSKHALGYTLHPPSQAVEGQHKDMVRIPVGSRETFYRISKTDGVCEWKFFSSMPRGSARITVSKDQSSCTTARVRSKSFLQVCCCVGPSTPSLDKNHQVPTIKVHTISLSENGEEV

beta1 adrenoceptor = beta1 adrenoceptor (Homo sapiens, UniProt P08588); test: Displacement of [3H](-)CGP 12177 from human recombinant beta1 adrenoceptor at 1 uM after 60 mins by radiometric scintillation analysis relative to control; details: probe [3H](-)CGP 12177
histamine H1 receptor = histamine H1 receptor (Homo sapiens, UniProt P35367); test: Displacement of [3H]pyrilamine from human recombinant histamine H1 receptor at 1 uM after 60 mins by radiometric scintillation analysis relative to control; details: probe [3H]pyrilamine
muscarinic M1 receptor = biological target: T5, muscarinic M1 receptor (Homo sapiens, UniProt P11229); test: Displacement of [3H]pirenzepine from human recombinant muscarinic M1 receptor at 1 uM after 60 mins by radiometric scintillation analysis relative to control; details: probe [3H]pirenzepine
T5 sequence (P11229 whole entry): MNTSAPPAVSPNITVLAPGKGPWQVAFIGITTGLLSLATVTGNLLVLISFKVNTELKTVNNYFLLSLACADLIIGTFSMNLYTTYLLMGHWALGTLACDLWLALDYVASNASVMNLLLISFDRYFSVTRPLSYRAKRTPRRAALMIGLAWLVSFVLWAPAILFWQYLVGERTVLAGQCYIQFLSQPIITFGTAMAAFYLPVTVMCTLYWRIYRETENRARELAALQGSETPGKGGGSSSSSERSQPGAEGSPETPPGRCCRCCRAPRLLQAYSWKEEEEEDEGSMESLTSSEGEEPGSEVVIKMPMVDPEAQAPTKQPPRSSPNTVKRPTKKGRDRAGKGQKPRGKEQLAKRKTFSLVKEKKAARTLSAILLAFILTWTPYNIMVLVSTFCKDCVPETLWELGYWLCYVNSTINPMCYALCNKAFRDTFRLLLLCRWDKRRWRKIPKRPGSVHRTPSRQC

[9] = Effective permeability of compound in PBS at pH 7.4 at 100 uM incubated for 5 hrs by PAMPA-BBB based UPLC-MS analysis; format: ADME; details: read-out: Peff
[10] = Metabolic stability in rat liver microsomes assessed as intrinsic clearance at 10 uM incubated for 10 mins followed by NADPH regeneration system addition and measured after 60 mins by UPLC-MS analysis; format: ADME, Microsome; details: time 70 min, read-out: CLH
[11] = Cmax in Wistar rat at 3 mg/kg, po measured up to 240 mins; format: ADME, organism-based; parameters: route oral, dose 3 mg/kg, time <=240; details: in vivo
[12] = Tmax in Wistar rat at 3 mg/kg, po measured up to 240 mins; format: ADME, organism-based; details: in vivo
[13] = Half life in Wistar rat at 3 mg/kg, po measured up to 240 mins; format: ADME, organism-based; details: in vivo
[14] = Cytotoxicity against mouse C8D1A astrocytes upto 25 uM by MTT assay; details: astrocyte
[15] = Cytotoxicity against mouse C8D1A astrocytes upto 25 uM by LDH assay; details: astrocyte

5-hydroxytryptamine receptor 6, sequence (P50406 whole entry): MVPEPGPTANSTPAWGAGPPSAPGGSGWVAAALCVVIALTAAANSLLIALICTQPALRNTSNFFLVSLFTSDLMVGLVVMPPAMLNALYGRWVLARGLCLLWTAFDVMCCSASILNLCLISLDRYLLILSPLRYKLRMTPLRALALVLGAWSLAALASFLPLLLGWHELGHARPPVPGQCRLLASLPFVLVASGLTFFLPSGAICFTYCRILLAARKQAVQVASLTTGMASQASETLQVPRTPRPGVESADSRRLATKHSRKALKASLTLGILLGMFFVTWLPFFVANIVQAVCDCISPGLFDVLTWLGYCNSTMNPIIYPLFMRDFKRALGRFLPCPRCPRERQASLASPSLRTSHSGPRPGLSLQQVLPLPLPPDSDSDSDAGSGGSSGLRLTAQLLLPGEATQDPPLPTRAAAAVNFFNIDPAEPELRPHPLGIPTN
histamine H1 receptor, sequence (P35367 whole entry): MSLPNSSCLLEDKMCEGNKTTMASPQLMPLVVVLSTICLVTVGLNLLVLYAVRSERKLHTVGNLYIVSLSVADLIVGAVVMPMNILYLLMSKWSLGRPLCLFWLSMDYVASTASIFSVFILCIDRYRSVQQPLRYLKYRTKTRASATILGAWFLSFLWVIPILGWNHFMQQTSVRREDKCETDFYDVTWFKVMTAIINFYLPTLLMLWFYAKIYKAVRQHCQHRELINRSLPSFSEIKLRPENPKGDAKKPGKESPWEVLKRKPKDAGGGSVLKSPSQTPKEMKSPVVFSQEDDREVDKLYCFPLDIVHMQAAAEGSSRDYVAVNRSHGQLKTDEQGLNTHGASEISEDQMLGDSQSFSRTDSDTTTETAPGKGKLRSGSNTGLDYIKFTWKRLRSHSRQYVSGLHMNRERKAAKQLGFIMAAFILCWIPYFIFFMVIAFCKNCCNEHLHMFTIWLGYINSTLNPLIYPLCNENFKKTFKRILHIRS
5-hydroxytryptamine receptor 7, sequence (P34969 whole entry): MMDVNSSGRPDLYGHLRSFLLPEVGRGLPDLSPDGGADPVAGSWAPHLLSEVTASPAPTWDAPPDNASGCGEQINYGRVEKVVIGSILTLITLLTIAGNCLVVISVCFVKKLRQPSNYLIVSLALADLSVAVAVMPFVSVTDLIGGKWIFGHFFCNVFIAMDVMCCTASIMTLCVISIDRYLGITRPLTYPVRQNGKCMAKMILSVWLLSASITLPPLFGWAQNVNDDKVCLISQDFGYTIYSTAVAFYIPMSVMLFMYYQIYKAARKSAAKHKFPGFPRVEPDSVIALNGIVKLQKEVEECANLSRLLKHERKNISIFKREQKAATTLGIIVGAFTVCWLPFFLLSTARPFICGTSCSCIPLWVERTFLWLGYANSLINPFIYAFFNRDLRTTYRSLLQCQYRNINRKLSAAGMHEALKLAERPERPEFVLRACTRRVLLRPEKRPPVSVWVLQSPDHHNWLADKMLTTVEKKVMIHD
D(2) dopamine receptor, sequence (P14416 whole entry): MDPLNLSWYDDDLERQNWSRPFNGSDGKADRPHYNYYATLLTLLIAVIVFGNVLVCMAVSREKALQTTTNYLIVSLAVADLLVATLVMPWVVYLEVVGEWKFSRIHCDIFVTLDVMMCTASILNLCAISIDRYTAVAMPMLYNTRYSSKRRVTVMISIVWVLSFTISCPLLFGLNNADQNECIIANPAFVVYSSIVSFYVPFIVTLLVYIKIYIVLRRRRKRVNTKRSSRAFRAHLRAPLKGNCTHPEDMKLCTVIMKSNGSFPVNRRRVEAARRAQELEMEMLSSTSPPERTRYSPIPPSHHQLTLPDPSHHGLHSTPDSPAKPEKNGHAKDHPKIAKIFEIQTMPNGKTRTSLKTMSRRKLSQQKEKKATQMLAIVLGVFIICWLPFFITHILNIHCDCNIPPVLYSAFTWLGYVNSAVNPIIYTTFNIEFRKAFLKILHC
5-hydroxytryptamine receptor 2A, sequence (P28223 whole entry): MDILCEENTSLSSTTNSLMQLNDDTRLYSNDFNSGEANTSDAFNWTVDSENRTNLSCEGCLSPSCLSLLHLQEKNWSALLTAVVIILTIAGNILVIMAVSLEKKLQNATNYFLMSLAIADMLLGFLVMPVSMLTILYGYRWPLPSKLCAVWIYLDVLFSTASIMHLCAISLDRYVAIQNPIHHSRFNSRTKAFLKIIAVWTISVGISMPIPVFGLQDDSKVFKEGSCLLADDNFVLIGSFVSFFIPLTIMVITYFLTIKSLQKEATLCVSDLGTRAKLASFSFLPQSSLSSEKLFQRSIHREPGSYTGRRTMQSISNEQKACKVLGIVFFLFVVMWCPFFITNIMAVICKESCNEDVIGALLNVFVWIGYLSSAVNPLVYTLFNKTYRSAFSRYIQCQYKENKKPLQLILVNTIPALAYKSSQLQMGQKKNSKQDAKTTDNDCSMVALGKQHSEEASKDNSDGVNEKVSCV
beta1 adrenoceptor, sequence (P08588 whole entry): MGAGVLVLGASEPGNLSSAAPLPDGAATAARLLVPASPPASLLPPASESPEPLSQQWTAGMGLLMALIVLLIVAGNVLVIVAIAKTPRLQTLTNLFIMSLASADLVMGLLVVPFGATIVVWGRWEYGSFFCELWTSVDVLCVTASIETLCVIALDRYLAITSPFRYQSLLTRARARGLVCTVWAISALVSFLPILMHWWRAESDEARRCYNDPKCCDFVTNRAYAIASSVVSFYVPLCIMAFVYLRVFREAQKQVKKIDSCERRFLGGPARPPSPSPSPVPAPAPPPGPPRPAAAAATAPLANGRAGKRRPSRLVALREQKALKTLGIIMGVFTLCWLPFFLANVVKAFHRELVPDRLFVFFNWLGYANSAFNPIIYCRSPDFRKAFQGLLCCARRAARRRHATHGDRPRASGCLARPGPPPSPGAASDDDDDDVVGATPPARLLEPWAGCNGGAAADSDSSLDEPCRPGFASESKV

| Ki [1] [nM] | IC50 [2] [nM] | inhibition at 1 µM [3] [%] | Compound | further results |
| --- | --- | --- | --- | --- |
| 259 | > 1000 | 34 | C#CCNC1CCc2c(OCCCCCCN3CCN(c4cccc5c4ccn5Cc4cccc(Cl)c4)CC3)cccc21 (stereo not drawn) |  |
| 162 | > 1000 | 24 | C[C@H](NCc1ccc(OCCCCN2CCN(c3cccc4c3ccn4Cc3cccc(Cl)c3)CC2)cc1)C(N)=O |  |
| 223 | 460 | 80 | C#CCNC1CCc2c(OCCCCCN3CCN(c4cccc5c4ccn5Cc4cccc(Cl)c4)CC3)cccc21 (stereo not drawn) |  |
| 158 | > 1000 | 47 | C[C@H](NCc1ccc(OCCCN2CCN(c3cccc4c3ccn4Cc3cccc(Cl)c3)CC2)cc1)C(N)=O |  |
| 51 | 163 | 90 | C#CCNC1CCc2c(OCCCCCN3CCN(c4cccc5c4ccn5S(=O)(=O)c4ccccc4)CC3)cccc21 (stereo not drawn) |  |
| 100 | > 1000 | 35 | C#CCNC1CCc2c(OCCN3CCN(c4cccc5c4ccn5Cc4cccc(Cl)c4)CC3)cccc21 (stereo not drawn) |  |
| 140 | 30 | 100 | C#CCN(C)Cc1ccc(OCCCCCN2CCN(c3cccc4c3ccn4Cc3cccc(Cl)c3)CC2)cc1 |  |
| 232 | > 1000 | 43 | C[C@H](NCc1ccc(OCCCCCN2CCN(c3cccc4c3ccn4Cc3cccc(Cl)c3)CC2)cc1)C(N)=O |  |
| 340 | > 1000 | 23 | C[C@H](NCc1ccc(OCCCCCCN2CCN(c3cccc4c3ccn4Cc3cccc(Cl)c3)CC2)cc1)C(N)=O |  |
| 195 | 323 | 85 | C#CCN(C)Cc1ccc(OCCCCN2CCN(c3cccc4c3ccn4Cc3cccc(Cl)c3)CC2)cc1 |  |
| 68 | > 1000 | 20 | C[C@H](NCc1ccc(OCCCCN2CCN(c3cccc4c3ccn4S(=O)(=O)c3ccccc3)CC2)cc1)C(N)=O |  |
| 65 | > 1000 | 17 | C[C@H](NCc1ccc(OCCCCCN2CCN(c3cccc4c3ccn4S(=O)(=O)c3ccccc3)CC2)cc1)C(N)=O |  |
| 77 | > 1000 | 31 | C#CCNC1CCc2c(OCCCN3CCN(c4cccc5c4ccn5Cc4cccc(Cl)c4)CC3)cccc21 (stereo not drawn) |  |
| 50 | > 1000 | 44 | C#CCNC1CCc2c(OCCCCN3CCN(c4cccc5c4ccn5S(=O)(=O)c4ccccc4)CC3)cccc21 (stereo not drawn) |  |
| 1.4 |  |  | C#CCN[C@@H]1CCc2ccccc21 [RASAGILINE] |  |
| 137 | > 1000 | 32 | C#CCN(C)Cc1ccc(OCCCCCCN2CCN(c3cccc4c3ccn4Cc3cccc(Cl)c3)CC2)cc1 |  |
|  | 154 | 91 | C#CCN(C)Cc1ccc(OCCCCCN2CCN(c3cccc4c3ccn4S(=O)(=O)c3ccccc3)CC2)cc1 | Ki [4]: 684 nM; Ki [5]: 420 nM; Ki [6]: 8000 nM; Ki (D(2) dopamine receptor): 813 nM; IC50 [7]: 1040 nM; inhibition at 1 h, 1 µM [8]: 37%; inhibition at 1 h, 1 µM (beta1 adrenoceptor): 5%; inhibition at 1 h, 1 µM (histamine H1 receptor): 13%; inhibition at 1 h, 1 µM (muscarinic M1 receptor): 4%; Papp at 5 h, 100 µM [9]: 4.84 ×10⁻⁶ cm/s; CLint scaled at 10 µM [10]: 85 mL/min/kg; Cmax [11]: 72.7 ng/mL; Tmax [12]: 0.5 h; half-life [13]: 28 h; Activity [14]: Non-Toxic; Activity [15]: Non-Toxic |
| 54 | > 1000 | 51 | C#CCN(C)Cc1ccc(OCCCCN2CCN(c3cccc4c3ccn4S(=O)(=O)c3ccccc3)CC2)cc1 |  |
| 113 | 270 | 100 | C#CCNC1CCc2c(OCCCCN3CCN(c4cccc5c4ccn5Cc4cccc(Cl)c4)CC3)cccc21 (stereo not drawn) |  |

| Compound | Ki [1] [nM] | IC50 [2] [nM] | inhibition at 1 µM [3] [%] | further results |
| --- | --- | --- | --- | --- |
| Clc1cccc(Cn2ccc3c(N4CCNCC4)cccc32)c1 | 7 |  | 3 |  |
| O=S(=O)(c1ccccc1)n1ccc2c(N3CCNCC3)cccc21 |  |  | 3 |  |
